Test results published in US20140005163A1 (NOVARTIS AG, priority 2010, published 2014).

Assays:
[1] = molecular target: T1, mTOR (Homo sapiens, UniProt P42345); assay: Biochemical assay for m-TOR by TR-FRET; conditions: 8 μM ATP, 400 nM GFP-4EBP1, 0.5 nM mTOR
T1 construct: purchased Invitrogen Corporation (Carlsbad/CA, USA) PV4753
Method in brief: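 mTOR (0.5 nM final) phosphorylated GFP-4EBP1 (400 nM final) with ATP (8 μM final) at rt in 50 mM HEPES pH 7.5, 10 mM MnCl2, 50 mM NaCl, 1 mM EGTA, 1 mM DTT. EDTA stop with Tb3+-anti-p4EBP1 [pThr46] antibody (0.5 nM); TR-FRET read 15 min later.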

[2] = molecular target: T2, PI3K delta (Homo sapiens, UniProt O00329); assay: PI3K delta kinase assay (Kinase-Glo luminescence); assay type: biochemical
T2 construct: for the full-length p110-d subunit are generated and fused by overlapping PCR; p85(iSH2) fusion partner (see partner chain) (N); His tag (C); made in house; host or cells: baculovirus; Tn5 (Trichoplusia ni) or TiniPro insect cells
T2 sequence (O00329 with tags, fused parts or gaps limits assumed): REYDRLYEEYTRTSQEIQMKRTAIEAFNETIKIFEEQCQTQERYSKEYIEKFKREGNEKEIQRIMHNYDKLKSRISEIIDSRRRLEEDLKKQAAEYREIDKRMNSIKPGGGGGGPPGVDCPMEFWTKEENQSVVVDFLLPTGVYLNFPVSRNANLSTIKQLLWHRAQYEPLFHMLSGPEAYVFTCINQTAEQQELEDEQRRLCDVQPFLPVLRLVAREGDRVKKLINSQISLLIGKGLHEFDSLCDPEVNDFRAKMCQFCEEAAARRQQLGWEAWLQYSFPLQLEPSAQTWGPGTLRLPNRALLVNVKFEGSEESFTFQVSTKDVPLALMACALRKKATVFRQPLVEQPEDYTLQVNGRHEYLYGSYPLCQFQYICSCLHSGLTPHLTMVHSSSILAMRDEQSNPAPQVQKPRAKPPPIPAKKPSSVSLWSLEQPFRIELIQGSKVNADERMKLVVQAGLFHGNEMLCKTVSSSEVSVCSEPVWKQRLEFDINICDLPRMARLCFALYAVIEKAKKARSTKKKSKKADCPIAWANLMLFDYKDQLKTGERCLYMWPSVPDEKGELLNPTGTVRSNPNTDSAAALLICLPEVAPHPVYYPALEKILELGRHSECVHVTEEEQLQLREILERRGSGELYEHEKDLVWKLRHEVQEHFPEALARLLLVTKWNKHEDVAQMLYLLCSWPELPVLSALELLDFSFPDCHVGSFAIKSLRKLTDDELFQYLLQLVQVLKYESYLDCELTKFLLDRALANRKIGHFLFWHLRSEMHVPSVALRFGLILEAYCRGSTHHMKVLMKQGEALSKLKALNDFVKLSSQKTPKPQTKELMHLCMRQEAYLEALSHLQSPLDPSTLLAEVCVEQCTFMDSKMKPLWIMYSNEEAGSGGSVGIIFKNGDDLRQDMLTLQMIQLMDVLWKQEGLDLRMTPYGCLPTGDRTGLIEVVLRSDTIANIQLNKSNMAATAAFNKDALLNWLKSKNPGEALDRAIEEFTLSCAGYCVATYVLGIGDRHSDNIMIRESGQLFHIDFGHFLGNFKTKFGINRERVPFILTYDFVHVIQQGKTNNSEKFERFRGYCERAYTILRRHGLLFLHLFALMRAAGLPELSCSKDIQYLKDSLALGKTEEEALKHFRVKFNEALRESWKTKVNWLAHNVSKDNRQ
Method in brief: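 Recombinant p85(iSH2)-Gly linker-p110δ full-length construct (BV1060, C-terminal His tag) was used at 10 nM with 10 μg/mL phosphatidylinositol and 1 μM ATP in 10 mM Tris-HCl pH 7.5, 3 mM MgCl2, 50 mM NaCl, 0.05% CHAPS, 1 mM DTT. After 60 min at room temperature, remaining ATP was measured by Kinase-Glo luminescence.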

[3] = molecular target: T3, PI3K alpha (Homo sapiens, UniProt P42336); assay: PI3K alpha kinase assay (Kinase-Glo luminescence); assay type: biochemical
T3 construct: p85(iSH2) fusion partner (see partner chain) (N); His tag (C); made in house; host or cells: baculovirus; Tn5 (Trichoplusia ni) or TiniPro insect cells
T3 sequence (P42336 with tags, fused parts or gaps limits assumed): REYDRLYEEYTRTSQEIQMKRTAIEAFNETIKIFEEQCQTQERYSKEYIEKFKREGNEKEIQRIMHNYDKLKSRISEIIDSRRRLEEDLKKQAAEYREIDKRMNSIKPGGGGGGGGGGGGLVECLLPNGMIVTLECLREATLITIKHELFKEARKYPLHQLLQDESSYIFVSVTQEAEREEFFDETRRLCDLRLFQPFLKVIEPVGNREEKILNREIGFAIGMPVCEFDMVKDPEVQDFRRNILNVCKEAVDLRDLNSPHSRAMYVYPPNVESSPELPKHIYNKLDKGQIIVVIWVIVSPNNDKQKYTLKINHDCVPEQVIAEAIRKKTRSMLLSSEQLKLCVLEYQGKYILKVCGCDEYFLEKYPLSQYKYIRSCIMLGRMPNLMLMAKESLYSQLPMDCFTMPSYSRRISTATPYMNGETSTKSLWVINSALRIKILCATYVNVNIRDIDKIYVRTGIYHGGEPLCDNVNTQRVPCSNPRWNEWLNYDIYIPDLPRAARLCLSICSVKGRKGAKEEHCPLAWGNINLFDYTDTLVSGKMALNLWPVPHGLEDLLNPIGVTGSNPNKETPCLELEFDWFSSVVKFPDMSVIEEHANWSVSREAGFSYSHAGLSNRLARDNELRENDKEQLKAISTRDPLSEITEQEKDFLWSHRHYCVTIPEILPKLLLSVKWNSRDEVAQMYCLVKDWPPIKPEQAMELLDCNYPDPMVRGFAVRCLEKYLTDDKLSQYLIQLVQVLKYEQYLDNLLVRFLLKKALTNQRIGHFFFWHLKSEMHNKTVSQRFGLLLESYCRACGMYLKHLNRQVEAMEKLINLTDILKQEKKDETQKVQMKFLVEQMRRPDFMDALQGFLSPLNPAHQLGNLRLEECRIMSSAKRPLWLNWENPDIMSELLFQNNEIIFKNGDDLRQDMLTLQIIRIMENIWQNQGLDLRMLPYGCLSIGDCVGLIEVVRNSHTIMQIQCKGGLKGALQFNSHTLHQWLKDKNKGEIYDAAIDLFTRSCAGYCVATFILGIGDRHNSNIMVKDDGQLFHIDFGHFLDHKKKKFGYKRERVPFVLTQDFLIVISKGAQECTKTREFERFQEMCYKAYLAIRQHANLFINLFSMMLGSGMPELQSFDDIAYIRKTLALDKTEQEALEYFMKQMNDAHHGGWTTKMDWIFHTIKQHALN
Method in brief: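 PI3Kα construct EMV B1075 (10 nM final) was preincubated with 10 μg/mL phosphatidylinositol in 10 mM Tris-HCl pH 7.5, 3 mM MgCl2, 50 mM NaCl, 0.05% CHAPS, 1 mM DTT. Reaction started with 1 μM ATP, 60 min at room temperature; remaining ATP measured by Kinase-Glo luminescence. IC50 from 4-parameter logistic fit of 8-point titrations.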

T1 sequence (P42345 1360-2549 limits assumed): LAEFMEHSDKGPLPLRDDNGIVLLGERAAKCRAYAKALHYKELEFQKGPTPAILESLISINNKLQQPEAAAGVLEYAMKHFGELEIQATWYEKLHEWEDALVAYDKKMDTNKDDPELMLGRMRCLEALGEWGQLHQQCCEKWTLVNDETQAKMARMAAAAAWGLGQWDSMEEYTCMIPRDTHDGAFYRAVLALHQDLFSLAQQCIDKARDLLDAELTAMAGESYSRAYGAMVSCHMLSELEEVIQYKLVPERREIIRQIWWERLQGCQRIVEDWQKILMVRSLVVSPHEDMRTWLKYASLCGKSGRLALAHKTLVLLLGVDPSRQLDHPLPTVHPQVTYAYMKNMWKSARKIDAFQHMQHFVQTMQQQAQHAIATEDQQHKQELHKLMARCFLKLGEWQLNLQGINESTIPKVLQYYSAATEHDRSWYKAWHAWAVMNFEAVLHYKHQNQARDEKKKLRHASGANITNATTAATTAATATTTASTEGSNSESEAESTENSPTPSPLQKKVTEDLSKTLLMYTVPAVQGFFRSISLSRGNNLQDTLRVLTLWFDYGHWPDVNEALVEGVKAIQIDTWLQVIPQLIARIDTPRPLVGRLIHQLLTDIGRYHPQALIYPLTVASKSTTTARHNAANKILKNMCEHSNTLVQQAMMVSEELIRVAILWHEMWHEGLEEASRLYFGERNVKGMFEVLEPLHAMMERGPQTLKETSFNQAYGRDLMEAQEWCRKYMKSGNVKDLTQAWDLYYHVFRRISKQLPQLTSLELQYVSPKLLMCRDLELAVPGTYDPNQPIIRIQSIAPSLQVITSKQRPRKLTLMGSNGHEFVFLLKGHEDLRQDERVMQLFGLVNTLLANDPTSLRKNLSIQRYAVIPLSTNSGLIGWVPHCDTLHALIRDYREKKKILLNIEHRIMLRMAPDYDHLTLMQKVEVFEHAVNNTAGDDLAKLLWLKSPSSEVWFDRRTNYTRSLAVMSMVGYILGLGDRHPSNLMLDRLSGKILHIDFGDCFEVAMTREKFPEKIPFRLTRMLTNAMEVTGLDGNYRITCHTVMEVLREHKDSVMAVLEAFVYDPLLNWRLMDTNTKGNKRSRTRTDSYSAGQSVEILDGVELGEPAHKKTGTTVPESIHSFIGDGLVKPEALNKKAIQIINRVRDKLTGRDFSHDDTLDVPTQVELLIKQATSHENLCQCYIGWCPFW

Compound	IC50 [1] [nM]	IC50 [2] [nM]	IC50 [3] [nM]
CNc1ncc(-c2ccc3ncc4c(c3c2)n(-c2cn(C(C)C)nc2C)c(=O)n4C)cc1F [Example 141.3, 8-(5-Fluoro-6-methylamino-pyridin-3-yl)-1-(1-isopropyl-3-methyl-1H-pyrazol-4-yl)-3-methyl-1,3-dihydro-imidazo[4,5-c]quinolin-2-one]	27	9	21
Cn1cc(-n2c(=O)n(C)c3cnc4ccc(-c5ccc(CO)nc5)cc4c32)c(Cl)n1 [Example 16.5, 1-(3-chloro-1-methyl-1H-pyrazol-4-yl)-8-(6-hydroxymethyl-pyridin-3-yl)-3-methyl-1,3-dihydro-imidazo[4,5-c]quinolin-2-one]	6	3	3
Cc1nn(C)cc1-n1c(=O)n(C)c2cnc3ccc(-c4cnc5ccn(C)c5c4)cc3c21 [Example 129, 1-(1,3-Dimethyl-1H-pyrazol-4-yl)-3-methyl-8-(1-methyl-1H-pyrrolo[3,2-b]pyridin-6-yl)-1,3-dihydro-imidazo[4,5-c]quinolin-2-one]	5	9	12
CCOc1ccc(-c2ccc3ncc4c(c3c2)n(-c2cn(CC(=O)N(C)C)nc2C)c(=O)n4C)cn1 [Example 3.9, 2-{4-[8-(6-Ethoxy-pyridin-3-yl)-3-methyl-2-oxo-2,3-dihydro-imidazo[4,5-c]quinolin-1-yl]-3-methyl-pyrazol-1-yl}-N,N-dimethyl-acetamide]	11	112	21
CCNc1cc(-c2ccc3ncc4c(c3c2)n(-c2cn(CC)nc2C)c(=O)n4C)cnc1C [Example 87.3, 8-(5-Ethylamino-6-methyl-pyridin-3-yl)-1-(1-ethyl-3-methyl-1H-pyrazol-4-yl)-3-methyl-1,3-dihydro-imidazo[4,5-c]quinolin-2-one]	< 3	6	9
COCc1ccc(-c2ccc3ncc4c(c3c2)n(-c2cn(C(C)C)nc2C)c(=O)n4C)cn1 [Example 105, 1-(1-Isopropyl-3-methyl-1H-pyrazol-4-yl)-8-(6-methoxymethyl-pyridin-3-yl)-3-methyl-1,3-dihydro-imidazo[4,5-c]quinolin-2-one]	95	52	110
CCOc1cncc(-c2ccc3ncc4c(c3c2)n(-c2cn(CC(=O)N(C)C)nc2C)c(=O)n4C)c1 [Example 56.2, 2-{4-[8-(5-Ethoxy-pyridin-3-yl)-3-methyl-2-oxo-2,3-dihydro-imidazo[4,5-c]quinolin-1-yl]-3-methyl-pyrazol-1-yl}-N,N-dimethyl-acetamide]	52	121	25
Cc1nn(C(C)C)cc1-n1c(=O)n(C)c2cnc3ccc(-c4cncc(N)c4)cc3c21 [Example 45.3, 8-(5-Amino-pyridin-3-yl)-1-(1-isopropyl-3-methyl-1H-pyrazol-4-yl)-3-methyl-1,3-dihydro-imidazo[4,5-c]quinolin-2-one]	7	10	76
CCNc1cc(-c2ccc3ncc4c(c3c2)n(-c2cn(C)nc2Cl)c(=O)n4C)cnc1C [Example 87.2, 1-(3-Chloro-1-methyl-1H-pyrazol-4-yl)-8-(5-ethylamino-6-methyl-pyridin-3-yl)-3-methyl-1,3-dihydro-imidazo[4,5-c]quinolin-2-one]	< 3	19	30
CNc1cc(-c2ccc3ncc4c(c3c2)n(-c2cn(C)nc2Cl)c(=O)n4C)cnc1CO [Example 158.3, 1-(3-Chloro-1-methyl-1H-pyrazol-4-yl)-8-(6-hydroxymethyl-5-methylamino-pyridin-3-yl)-3-methyl-1,3-dihydro-imidazo[4,5-c]quinolin-2-one]	12	4	7
CCNc1cc(-c2ccc3ncc4c(c3c2)n(-c2cn(CC)nc2C)c(=O)n4C)cnc1CO [Example 155.2, 8-(5-Ethylamino-6-hydroxymethyl-pyridin-3-yl)-1-(1-ethyl-3-methyl-1H-pyrazol-4-yl)-3-methyl-1,3-dihydro-imidazo[4,5-c]quinolin-2-one]	12	22	14
Cc1nn(C)c(C)c1-n1c(=O)n(C)c2cnc3ccc(-c4ccc(CO)nc4)cc3c21 [Example 16.4, 8-(6-Hydroxymethyl-pyridin-3-yl)-3-methyl-1-(1,3,5-trimethyl-1H-pyrazol-4-yl)-1,3-dihydro-imidazo[4,5-c]quinolin-2-one]	666	161	184
Cc1cc(-n2c(=O)n(C)c3cnc4ccc(-c5ccc(N(C)C)nc5)cc4c32)n(C)n1 [Example 4.6, 8-(6-Dimethylamino-pyridin-3-yl)-1-(2,5-dimethyl-2H-pyrazol-3-yl)-3-methyl-1,3-dihydro-imidazo[4,5-c]quinolin-2-one]	42	91	48
CNC(=O)c1ccc(-c2ccc3ncc4c(c3c2)n(-c2c(C)nn(C)c2C)c(=O)n4C)cn1 [Example 15.2, 5-[3-Methyl-2-oxo-1-(1,3,5-trimethyl-1H-pyrazo1-4-yl)-2,3-dihydro-1H-imidazo[4,5-c]quinolin-8-yl]-pyridine-2-carboxylic acid methylamide]	335	821	249

Results, then the molecule that gave them:

IC50 [1] [nM]	IC50 [2] [nM]	IC50 [3] [nM]	Compound
7	6	15	CCc1ncc(-c2ccc3ncc4c(c3c2)n(-c2cn(C)nc2C)c(=O)n4C)cc1N [Example 208, 8-(5-Amino-6-ethyl-pyridin-3-yl)-1-(1,3-dimethyl-1H-pyrazol-4-yl)-3-methyl-1,3-dihydro-imidazo[4,5-c]quinolin-2-one]
6	70	66	Cc1nn(C)cc1-n1c(=O)n(C)c2cnc3ccc(-c4cncc(N5CCOCC5)c4)cc3c21 [Example 175.1, 1-(1,3-Dimethyl-1H-pyrazol-4-yl)-3-methyl-8-(5-morpholin-4-yl-pyridin-3-yl)-1,3-dihydro-imidazo[4,5-c]quinolin-2-one]
< 3	6	22	CNc1cncc(-c2ccc3ncc4c(c3c2)n(-c2cn(C(C)C)nc2C)c(=O)n4C)c1 [Example 180.2, 1-(1-Isopropyl-3-methyl-1H-pyrazol-4-yl)-3-methyl-8-(5-methylamino-pyridin-3-yl)-1,3-dihydro-imidazo[4,5-c]quinolin-2-one]
< 3	5	6	CNc1cc(-c2ccc3ncc4c(c3c2)n(-c2cn(C)nc2C)c(=O)n4C)cnc1C [Example 163, 1-(1,3-Dimethyl-1H-pyrazol-4-yl)-3-methyl-8-(6-methyl-5-methylamino-pyridin-3-yl)-1,3-dihydro-imidazo[4,5-c]quinolin-2-one]
15	8	5	COCc1ccc(-c2ccc3ncc4c(c3c2)n(-c2cn(C)nc2Cl)c(=O)n4C)cn1 [Example 203, 1-(3-Chloro-1-methyl-1H-pyrazol-4-yl)-8-(6-methoxymethyl-pyridin-3-yl)-3-methyl-1,3-dihydro-imidazo[4,5-c]quinolin-2-one]
34	11	13	CCn1cc(-n2c(=O)n(C)c3cnc4ccc(-c5cnc(COC)c(OC(C)C)c5)cc4c32)c(C)n1 [Example 191.2, 1-(1-Ethyl-3-methyl-1H-pyrazol-4-yl)-8-(5-isopropoxy-6-methoxymethyl-pyridin-3-yl)-3-methyl-1,3-dihydro-imidazo[4,5-c]quinolin-2-one]
< 3	4	7	CCN(C)c1cc(-c2ccc3ncc4c(c3c2)n(-c2cn(C)nc2C)c(=O)n4C)cnc1C [Example 165, 1-(1,3-Dimethyl-1H-pyrazol-4-yl)-8-[5-(ethyl-methyl-amino)-6-methyl-pyridin-3-yl]-3-methyl-1,3-dihydro-imidazo[4,5-c]quinolin-2-one]
107	24	41	CCOc1cc(-c2ccc3ncc4c(c3c2)n(-c2cn(C(C)C)nc2C)c(=O)n4C)cnc1COC [Example 197.2, 8-(5-Ethoxy-6-methoxymethyl-pyridin-3-yl)-1-(1-isopropyl-3-methyl-1H-pyrazol-4-yl)-3-methyl-1,3-dihydro-imidazo[4,5-c]quinolin-2-one]
13	87	39	Cc1nn(C)cc1-n1c(=O)n(C)c2cnc3ccc(-c4cncc(N5CCC5)c4)cc3c21 [Example 179, 8-(5-Azetidin-1-yl-pyridin-3-yl)-1-(1,3-dimethyl-1H-pyrazol-4-yl)-3-methyl-1,3-dihydro-imidazo[4,5-c]quinolin-2-one]
